Measured values from patent publication US20120264803A1, “METHOD FOR PREDICTING THERAPEUTIC EFFECTS OF CHEMOTHERAPY ON HEPATOCELLULAR CARCINOMA PATIENTS” (priority 2009, published 2012).

Assays:
[1] = test system: hepatocellular carcinoma patients treated with TACE; assay: Comparative clinical study of TSU-68 administration vs non-administration after TACE (progression-free survival); format: in vivo, human
Experimental: A comparative clinical study was conducted for the TSU-68 administration group and the TSU-68 non-administration group consisting of cases diagnosed as hepatocellular carcinoma that were impossible to treat with hepatectomy and PAT and had been treated with TACE. The antitumor agent used herein for TACE was epirubicin.
The subject cases were randomly assigned to the TSU-68 administration group and the TSU-68 non-administration group. TSU-68 administration was initiated for cases assigned to the TSU-68 administration group within 2 weeks after TACE. TSU-68 was administered orally at a dose of 200 mg per administration twice daily after breakfast and dinner on consecutive days. No further cancer treatment was given to the TSU-68 non-administration group after TACE and thus only follow-up observation was carried out.
Progression-free survival was defined as survival within the period from the day of TACE designated as the initial date of reckoning to any of dates on which the following events was observed, whichever came first.
1. Date on which the presence of progressive disease (hereinafter referred to as “PD”) was confirmed as a result of assessment of best overall response (date of testing). 2. Date on which a test subject died for any reason (date of death). 3. Date on which a test subject was assessed to have experienced clinically obvious deterioration of the disease or to be in need of post-TACE treatment even without confirmation of PD upon assessment of best overall response (date of assessment).
Best overall response was evaluated by measuring tumor diameters by CT and assaying tumor markers (AFP, PIVKA-II, and AFP-L3 fractions) according to New Guideline to Evaluate the Response to Treatment in Solid Tumor (hereinafter referred to as “RECIST”) (J Natl Cancer Inst 92: 205, 2000).
The expression levels of PDGF-BB and IL-8 in blood obtained before TSU-68 administration after TACE were determined using ELISA Kits as described below.
Cut-off points were determined by the statistical analysis technique described below based on the quantified PDGF-BB and IL-8 levels.
(1) The cut-off point for dividing patients into the PDGF-BB hyperexpression group and the PDGF-BB underexpression group was calculated so that the difference between the 6-month-progression-free survival rate for the TSU-68 administration group and the 6-month-progression-free survival rate for the TSU-68 non-administration group was 20% or more for patients in the PDGF-BB hyperexpression group. The cut-off point was 1480 to 2030 pg/ml. (2) The cut-off point for dividing patients into the PDGF-BB hyperexpression group and the PDGF-BB underexpression group was calculated so that the hazard ratio of the TSU-68 administration group to the TSU-68 non-administration group was 0.6 or less for patients in the PDGF-BB hyperexpression group. The cut-off point was 1740 to 1960 pg/ml. (3) The cut-off point for dividing patients into the IL-8 hyperexpression group and the IL-8 underexpression group was calculated so that the difference between the 6-month-progression-free survival rate for the TSU-68 administration group and the 6-month-progression-free survival rate for the TSU-68 non-administration group was 20% or more for cases in the IL-8 hyperexpression group. The cut-off point was 2.1 to 6.6 pg/ml. (4) The cut-off point for dividing patients into the IL-8 hyperexpression group and the IL-8 underexpression group was calculated so that the hazard ratio of the TSU-68 administration group to the TSU-68 non-administration group was 0.6 or less for cases in the IL-8 hyperexpression group. The cut-off point was 2.1 to 10.5 pg/ml.
The PDGF-BB hyperexpression group, the PDGF-BB underexpression group, the IL-8 hyperexpression group, and the IL-8 underexpression group were subjected to survival time analysis of the TSU-68 administration group and the TSU-68 non-administration group with the use of the cut-off points calculated in Example 1.

[2] = test system: human cancer cell lines subcutaneously implanted (lung cancer, colon cancer, ovarian cancer); settings: oral administration of TSU-68 alone, Non-Patent Literature 3; cited from earlier work
[3] = IL-8 hyperexpression group, cut-off 2.1 pg/ml, vs non-administration
[4] = IL-8 hyperexpression group, cut-off 6.6 pg/ml, vs non-administration
[5] = IL-8 hyperexpression group, cut-off 10.5 pg/ml, vs non-administration
[6] = IL-8 underexpression group, cut-off 6.6 pg/ml, vs non-administration
[7] = IL-8 underexpression group, cut-off 10.5 pg/ml, vs non-administration
[8] = PDGF-BB hyperexpression group, cut-off 1480 pg/ml, vs non-administration
[9] = PDGF-BB hyperexpression group, cut-off 1740 pg/ml, vs non-administration
[10] = PDGF-BB hyperexpression group, cut-off 1960 pg/ml, vs non-administration
[11] = PDGF-BB hyperexpression group, cut-off 2030 pg/ml, vs non-administration
[12] = PDGF-BB underexpression group, cut-off 1480 pg/ml, vs non-administration
[13] = PDGF-BB underexpression group, cut-off 1740 pg/ml, vs non-administration
[14] = PDGF-BB underexpression group, cut-off 1960 pg/ml, vs non-administration
[15] = PDGF-BB underexpression group, cut-off 2030 pg/ml, vs non-administration
[16] = patients having high PDGF-BB or IL-8 blood levels (summary over cut-off points), vs non-administration
[17] = stratified using reported VCAM cut-off point 2370 pg/ml (data not shown), vs non-administration

For `Cc1[nH]c(/C=C2\C(=O)Nc3ccccc32)c(C)c1CCC(=O)O` [TSU-68, (Z)-5-[(1,2-dihydro-2-oxo-3H-indol-3-ylidene)methyl]2,4-dimethyl-1H-pyrro 1-3-propanoic acid], the 6-month-progression-free survival rates ([1]; IL-8 hyperexpression group, cut-off 2.1 pg/ml) was 48%, the “Difference between 6-month-progression-free survival rate” value [1, 3] was 23% and the Hazard ratio [1, 3] was 0.51. For the same compound, the 6-month-progression-free survival rate ([1]; IL-8 hyperexpression group, cut-off 6.6 pg/ml) was 50%, the “Difference between 6-month-progression-free survival rates” value [1, 4] was 20% and the Hazard ratio [1, 4] was 0.51. For the same compound, the 6-month-progression-free survival rate ([1]; IL-8 hyperexpression group, cut-off 10.5 pg/ml) was 56%, the “Difference between 6-month-progression-free survival rates” value [1, 5] was 27% and the Hazard ratio [1, 5] was 0.51. For the same compound, the 6-month-progression-free survival rates ([1]; IL-8 underexpression group, cut-off 2.1 pg/ml) was 0%, the “Difference between 6-month-progression-free survival rate” value ([1]; IL-8 underexpression group, cut-off 2.1 pg/ml, vs non-administration) was −57% and the 6-month-progression-free survival rate ([1]; IL-8 underexpression group, cut-off 6.6 pg/ml) was 39%. The “Difference between 6-month-progression-free survival rates” value [1, 6] was 9%, the Hazard ratio [1, 6] was 0.92 and the 6-month-progression-free survival rate ([1]; IL-8 underexpression group, cut-off 10.5 pg/ml) was 41%. For the same compound, the “Difference between 6-month-progression-free survival rates” value [1, 7] was 11%, the Hazard ratio [1, 7] was 0.79 and the 6-month-progression-free survival rate ([1]; PDGF-BB hyperexpression group, cut-off 1480 pg/ml) was 52%. For the same compound, the “Difference between 6-month-progression-free survival rates” value [1, 8] was 21%, the Hazard ratio [1, 8] was 0.64 and the 6-month-progression-free survival rate ([1]; PDGF-BB hyperexpression group, cut-off 1740 pg/ml) was 52%. For the same compound, the “Difference between 6-month-progression-free survival rates” value [1, 9] was 25%, the Hazard ratio [1, 9] was 0.59 and the 6-month-progression-free survival rate ([1]; PDGF-BB hyperexpression group, cut-off 1960 pg/ml) was 52%. For the same compound, the “Difference between 6-month-progression-free survival rates” value [1, 10] was 25%, the Hazard ratio [1, 10] was 0.55 and the 6-month-progression-free survival rate ([1]; PDGF-BB hyperexpression group, cut-off 2030 pg/ml) was 52%. The “Difference between 6-month-progression-free survival rates” value [1, 11] was 24%, the Hazard ratio [1, 11] was 0.62 and the 6-month-progression-free survival rate ([1]; PDGF-BB underexpression group, cut-off 1480 pg/ml) was 25%. The “Difference between 6-month-progression-free survival rates” value [1, 12] was 2%, the Hazard ratio [1, 12] was 0.73 and the 6-month-progression-free survival rate ([1]; PDGF-BB underexpression group, cut-off 1740 pg/ml) was 40%. The “Difference between 6-month-progression-free survival rates” value [1, 13] was 2%, the Hazard ratio [1, 13] was 0.85 and the 6-month-progression-free survival rate ([1]; PDGF-BB underexpression group, cut-off 1960 pg/ml) was 40%. For the same compound, the “Difference between 6-month-progression-free survival rates” value [1, 14] was 7%, the Hazard ratio [1, 14] was 0.84 and the 6-month-progression-free survival rate ([1]; PDGF-BB underexpression group, cut-off 2030 pg/ml) was 42%. The “Difference between 6-month-progression-free survival rates” value [1, 15] was 10%, the Hazard ratio [1, 15] was 0.75 and the 6-month-progression-free survival rate ([1]; all cases, TSU-68 200 mg orally twice daily after TACE) was 47%. The Hazard ratio ([1]; all cases, TSU-68 administration to non-administration group) was 0.69, the “Difference between 6-month-progression-free survival rates” value ([1]; all cases, TSU-68 administration vs non-administration group) was 18% and the “Difference between 6-month-progression-free survival rates” value [1, 16] was 22% to 27. For the same compound, the Hazard ratio [1, 16] was 0.51 to 0.68, the “Difference between 6-month-progression-free survival rates” value [1, 17] was less than 20% and the Hazard ratio [1, 17] was greater than 0.6. The “antitumor effects (tumor growth inhibition)” value [2] was “effective for inhibiting tumor growth”.
